Data as given in patent publication USRE46856E1, “Substituted 2,3-dihydroimidazo[1,2-c]quinazoline derivatives useful for treating hyper-proliferative disorders and diseases associated with angiogenesis” (Bayer Intellectual Property GmbH, priority 2006, dated 2018).
Structures can show the parent of a compound that is named as a salt.

Key:
[1] = molecular target: T1, PI3Kα (Homo sapiens, UniProt P42336); experiment: Solid-phase lipid kinase assay of PI3Kα (p110α assay); assay type: biochemical; conditions: recombinant truncated human p110α, 10 μM ATP
T1 construct: His6 (N); made in house; host or cells: S. frugiperda 9 (Sf9) insect cells
From the text: [Determination of IC50 Values of Compounds in Kinase Assay of PI3Kα]
LABORATORIES (Toronto, Canada). […] [γ^33P]ATP and unlabeled ATP were purchased from […] […] BIOTECH (Buckinghamshire, UK) and ROCHE DIAGNOSTICS (Mannheim, Germany), respectively. Scintillation cocktails and MicroScint PS™ were purchased from PACKARD (Meriden, Conn.). Maxisorp™ plates were purchased from NALGE NUNC INTERNATIONAL K.K. (Tokyo, Japan). All other chemicals not further specified were from WAKO PURE CHEMICALS (Osaka, Japan).
The plates were subsequently air-dried by incubation for at least 2 hours in a fume hood. The reaction was set up by mixing 25 μL/well of assay buffer 2×(100 mM MOPSO/NaOH, 0.2 M NaCl, pH 7.0, 8 mM MgCl2, 2 mg/mL BSA (fatty acid-free)), and 7.5 ng/well PI3Kα in the lipid pre-coated plate. 100× test compounds were added in 2% DMSO. The reaction was started by adding 20 μL/well of ATP mix (final 10 μM ATP; 0.05 μCi/well [γ^33P]ATP). After incubation at RT for 2 hours, the reaction was terminated by adding 50 μl/well stop solution (50 mM EDTA, pH 8.0). The plate was then washed twice with Tris-buffered saline (TBS, pH 7.4). MicroScint PS™ (PACKARD) scintillation mix was added at 100 μL/well, and radioactivity was counted using a TopCount™ (PACKARD) scintillation counter.
The inhibition percent at each concentration of compound was calculated, and IC50 values were determined from the inhibition of curve.

[2] = molecular target: T2, PI3Kβ (Homo sapiens, UniProt P42338); experiment: Isozyme selectivity test: kinase assay of PI3Kβ (p110β assay); assay type: biochemical; conditions: recombinant truncated p110β, 7.5 ng protein/well
T2 construct: His6 (N); made in house; host or cells: S. frugiperda 9 (Sf9) insect cells
From the text: [Isozyme Selectivity Test in PI3K]
Determination of IC50 Values of Compounds in Kinase Assays of PI3Kβ and PI3Kγ

[3] = test system: IGF-1 induced AKT phosphorylation in A549 cells; experiment: IGF-1 induced AKT phosphorylation assay (A549 cell assay); assay type: cell-based; conditions: Homo sapiens; A549 cells, 25 ng/ml IGF-1, phospho-AKT(Ser 473); read-out: average IC50 in the A549 cell assay
From the text: [Determination of IC50 Values of Compounds in Cell Based Assays of PI3K Activity] 96-well collagen treated clear bottom/black sided Costar plates were purchased from CORNING LIFE SCIENCES (Corning, N.Y.; at.#3904). Gibco RPMI medium (Cat.#11875), Biosource anti-phospho-AKT([…]) antibody (Cat.#44-621G) and recombinant IGF-1 (Cat.#PHG0074) were purchased from INVITROGEN (Carlsbad, Calif.). The secondary donkey anti-rabbit IgG horse radish peroxidase conjugate (Cat. #N[…]) and ECL chemiluminesence reagent (Cat.#RPN2209) were purchased from […] (Buckinghamshire, UK). Cell culture tested bovine serum albumin solution (35% in DPBS; Cat.#A7979) and all other chemicals were purchased from SIGMA (St. Louis, Mo.). The Wallac Victor2 1420 Multilabel HTS Counter was purchased from […] (Wellesley, Mass.) […] All wells (except no IGF-1 controls) were then treated with 25 ng/ml IGF-1 for 10 minutes at 37° C. in a 5% CO2 incubator. Following removal of the supernatants and washing with the wells with TBS (50 mM Tris pH 8.0 containing 138 mM NaCL and 27 mM KCl), 200 µL of 3.7% formaldehyde in TBS was added to each well, and the plate was incubated at 4° C. for 10 minutes. Supernatants were once again removed and replaced with 50 μL Methanol (-20° C.) and the plate incubated at 4° C. for 5 minutes. 200 μL of 0.1% BSA in TBS was then added to each well and the plate incubated at room temperature for 1⁄2 hour. Supernatants were removed and 50 μL of a solution comprising the primary anti-phospho-AKT([…]) antibody diluted 1:250 in TBS containing 0.1% BSA was added to each well (except control/background wells). The plate was then incubated for 11⁄2 hour at room temperature. Supernatants were removed, each well was washed 3 times with 200 μL TBS, and 100 μL of a solution containing the secondary donkey anti-rabbit IgG antibody HRP-conjugate diluted 1:100 in TBS-T (TBS containing 0.1% triton). Plates were then incubated for 1 hour at room temperature. After removing the secondary antibody, each well was washed 6 times with cold TBS-T, 100 μL of ECL was added to each well, and the plate was placed on an orbital shaker for 1 minute. The plates were then read on a Wallac Victor2 1420 Multilabel HTS Counter using the luminometry window (maximum light detection is measured at […]). IC50 values were determined from the inhibition curve.

T1 sequence (P42336 109-1068): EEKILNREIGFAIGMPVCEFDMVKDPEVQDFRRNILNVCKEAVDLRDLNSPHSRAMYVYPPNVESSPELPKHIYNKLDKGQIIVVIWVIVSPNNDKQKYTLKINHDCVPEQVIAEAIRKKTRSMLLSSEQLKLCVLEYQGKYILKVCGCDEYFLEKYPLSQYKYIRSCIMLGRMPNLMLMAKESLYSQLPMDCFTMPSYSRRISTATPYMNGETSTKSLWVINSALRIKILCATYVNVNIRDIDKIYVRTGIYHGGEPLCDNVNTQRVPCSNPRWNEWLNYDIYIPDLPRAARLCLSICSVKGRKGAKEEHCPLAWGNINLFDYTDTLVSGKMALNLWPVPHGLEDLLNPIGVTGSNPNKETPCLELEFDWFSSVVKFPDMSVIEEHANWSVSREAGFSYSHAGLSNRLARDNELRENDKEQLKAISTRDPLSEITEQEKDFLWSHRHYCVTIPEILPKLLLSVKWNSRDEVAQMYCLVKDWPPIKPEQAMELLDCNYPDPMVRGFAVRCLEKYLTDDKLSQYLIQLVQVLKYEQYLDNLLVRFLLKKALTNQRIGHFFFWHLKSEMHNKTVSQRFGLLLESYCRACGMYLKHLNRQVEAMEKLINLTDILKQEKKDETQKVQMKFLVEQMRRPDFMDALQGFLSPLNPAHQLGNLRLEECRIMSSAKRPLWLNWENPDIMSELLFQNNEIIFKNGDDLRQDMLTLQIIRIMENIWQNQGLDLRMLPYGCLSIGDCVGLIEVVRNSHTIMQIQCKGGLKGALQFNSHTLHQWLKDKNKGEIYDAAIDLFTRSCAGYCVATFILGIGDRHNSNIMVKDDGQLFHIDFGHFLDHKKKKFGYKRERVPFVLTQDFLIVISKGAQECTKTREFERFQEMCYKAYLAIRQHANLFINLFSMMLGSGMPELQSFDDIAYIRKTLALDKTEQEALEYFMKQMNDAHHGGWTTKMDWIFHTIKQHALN
T2 sequence (P42338 109-1070): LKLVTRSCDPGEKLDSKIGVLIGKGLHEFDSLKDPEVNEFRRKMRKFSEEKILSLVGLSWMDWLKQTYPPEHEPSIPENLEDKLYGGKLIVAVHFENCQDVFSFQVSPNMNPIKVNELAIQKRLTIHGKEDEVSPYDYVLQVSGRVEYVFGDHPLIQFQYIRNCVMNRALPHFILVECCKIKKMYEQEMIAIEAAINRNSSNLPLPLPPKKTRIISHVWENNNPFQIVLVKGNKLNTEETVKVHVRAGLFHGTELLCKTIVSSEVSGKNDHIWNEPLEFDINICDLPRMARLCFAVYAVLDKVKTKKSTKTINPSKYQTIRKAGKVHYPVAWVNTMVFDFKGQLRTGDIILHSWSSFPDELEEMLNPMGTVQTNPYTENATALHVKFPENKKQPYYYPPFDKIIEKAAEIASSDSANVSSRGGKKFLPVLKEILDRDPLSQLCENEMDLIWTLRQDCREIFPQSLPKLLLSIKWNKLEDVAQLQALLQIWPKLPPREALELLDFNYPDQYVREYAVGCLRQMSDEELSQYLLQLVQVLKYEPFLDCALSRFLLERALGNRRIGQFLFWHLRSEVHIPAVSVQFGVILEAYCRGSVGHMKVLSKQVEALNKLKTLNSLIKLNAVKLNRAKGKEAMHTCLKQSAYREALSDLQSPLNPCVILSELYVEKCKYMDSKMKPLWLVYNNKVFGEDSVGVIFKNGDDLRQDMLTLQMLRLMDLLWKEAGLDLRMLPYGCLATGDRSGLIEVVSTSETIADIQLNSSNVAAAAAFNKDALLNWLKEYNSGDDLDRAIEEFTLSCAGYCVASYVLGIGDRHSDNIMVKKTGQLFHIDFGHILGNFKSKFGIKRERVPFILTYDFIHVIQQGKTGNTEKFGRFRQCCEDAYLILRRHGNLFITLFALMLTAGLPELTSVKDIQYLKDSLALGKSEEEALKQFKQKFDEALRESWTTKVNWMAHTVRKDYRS

IC50 [1] | IC50 [2] | IC50 [3] | Compound
> 100 nM | > 100 nM | > 1000 nM | COc1c(OCCCN(C)C)ccc2c1N=C(NC(=O)c1ccc[n+]([O-])c1)N1CCN=C21 [Example 12, N-{8-[3-(dimethylamino)propoxy]-7-methoxy-2,3-dihydroimidazo[1,2-c]quinazolin-5-yl}nicotinamide 1-oxide]
10 to 100 nM | 10 to 100 nM | > 1000 nM | COc1c(OCCCN2CCOCC2)ccc2c1N=C(NC(=O)c1ccc(CCN3CCCC3)nc1)N1CCN=C21 [Example 14, N-[7-methoxy-8-(3-morpholin-4-ylpropoxy)-2,3-dihydroimidazo[1,2-c]quinazolin-5-yl]-6-(2-pyrrolidin-1-ylethyl)nicotinamide]
10 to 100 nM | 10 to 100 nM | > 1000 nM | COc1c(OCCCN2CCOCC2)ccc2c1N=C(NC(=O)c1ccc(NC3CCCC3)nc1)N1CCN=C21 [Example 15, 6-(cyclopentylamino)-N-[7-methoxy-8-(3-morpholin-4-ylpropoxy)-2,3-dihydroimidazo[1,2-c]quinazolin-5-yl]nicotinamide]
10 to 100 nM | 10 to 100 nM |  | COc1c(OCCCN2CCOC[C@@H]2C)ccc2c1N=C(NC(=O)c1cccnc1)N1CCN=C21 [Example 17, N-{7-methoxy-8-[3-(3-methylmorpholin-4-yl)propoxy]-2,3-dihydroimidazo[1,2-c]quinazolin-5-yl}nicotinamide]
< 10 nM | < 10 nM | < 100 nM | COc1c(OCCC2CN(CC3CCC3)CCO2)ccc2c1N=C(NC(=O)c1cccnc1)N1CCN=C21 (centres unmarked) [Example 19, N-(8-{2-[4-(cyclobutylmethyl)morpholin-2-yl]ethoxy}-7-methoxy-2,3-dihydroimidazo[1,2-c]quinazolin-5-yl)nicotinamide]
10 to 100 nM | 10 to 100 nM |  | COc1c(OCCCN2CCOCC2)ccc2c1N=C(NC(=O)c1cnc(N3CCOCC3)nc1)N1CCN=C21 [Example 49, N-[7-methoxy-8-(3-morpholin-4-ylpropoxy)-2,3-dihydroimidazo[1,2-c]quinazolin-5-yl]-2-morpholin-4-ylpyrimidine-5-carboxamide]
 |  | < 100 nM | CCN(CC)CCCOc1ccc2c(c1OC)N=C(NC(=O)c1cccnc1)N1CCN=C21 [Example 85, N-{8-[3-(diethylamino)propoxy]-7-methoxy-2,3-dihydroimidazo[1,2-c]quinazolin-5-yl}nicotinamide]
 |  | 100 to 1000 nM | COc1c(OCCN(C(C)C)C(C)C)ccc2c1N=C(NC(=O)c1cccnc1)N1CCN=C21 [Example 86, N-{8-[2-(diisopropylamino)ethoxy]-7-methoxy-2,3-dihydroimidazo[1,2-c]quinazolin-5-yl}nicotinamide]
 |  | 100 to 1000 nM | CCN(CC)CCOc1ccc2c(c1OC)N=C(NC(=O)c1cccnc1)N1CCN=C21 [Example 87, N-{8-[2-(diethylamino)ethoxy]-7-methoxy-2,3-dihydroimidazo[1,2-c]quinazolin-5-yl}nicotinamide]
 |  | 100 to 1000 nM | COc1c(OCCCN(C)C)ccc2c1N=C(NC(=O)c1cccnc1)N1CCN=C21 [Example 88, N-{8-[3-(dimethylamino)propoxy]-7-methoxy-2,3-dihydroimidazo[1,2-c]quinazolin-5-yl}nicotinamide]
 |  | 100 to 1000 nM | COc1c(OCCN(C)C)ccc2c1N=C(NC(=O)c1cccnc1)N1CCN=C21 [Example 89, N-{8-[2-(dimethylamino)ethoxy]-7-methoxy-2,3-dihydroimidazo[1,2-c]quinazolin-5-yl}nicotinamide]
 |  | < 100 nM | CNc1ncc(C(=O)NC2=Nc3c(ccc(OCCCN4CCOCC4)c3OC)C3=NCCN23)cn1 [Example 90, N-[7-methoxy-8-(3-morpholin-4-ylpropoxy)-2,3-dihydroimidazo[1,2-c]quinazolin-5-yl]-2-(methylamino)pyrimidine-5-carboxamide]
 |  | < 100 nM | COc1c(OCCCN2CCOCC2)ccc2c1N=C(NC(=O)c1cnc(SC)nc1)N1CCN=C21 [Example 91, N-[7-methoxy-8-(3-morpholin-4-ylpropoxy)-2,3-dihydroimidazo[1,2-c]quinazolin-5-yl]-2-(methylthio)pyrimidine-5-carboxamide]
 |  | > 1000 nM | COc1c(OCCCN)ccc2c1N=C(NC(=O)c1cccnc1)N1CCN=C21 [Example 92, N-[8-(3-aminopropoxy)-7-methoxy-2,3-dihydroimidazo[1,2-c]quinazolin-5-yl]nicotinamide trifluoroacetate]
 |  | < 100 nM | COc1c(OCCCN2CCOCC2)ccc2c1N=C(NC(=O)c1sc(C)nc1C)N1CCN=C21 [Example 94, N-[7-methoxy-8-(3-morpholin-4-ylpropoxy)-2,3-dihydroimidazo[1,2-c]quinazolin-5-yl]-2,4-dimethyl-1,3-thiazole-5-carboxamide]
 |  | < 100 nM | COc1ncc(C(=O)NC2=Nc3c(ccc(OCCCN4CCOCC4)c3OC)C3=NCCN23)cn1 [Example 95, 2-methoxy-N-[7-methoxy-8-(3-morpholin-4-ylpropoxy)-2,3-dihydroimidazo[1,2-c]quinazolin-5-yl]pyrimidine-5-carboxamide]
 |  | 100 to 1000 nM | COc1c(OCCCN2CCOCC2)ccc2c1N=C(NC(=O)c1ccoc1)N1CCN=C21 [Example 96, N-[7-methoxy-8-(3-morpholin-4-ylpropoxy)-2,3-dihydroimidazo[1,2-c]quinazolin-5-yl]-3-furamide]
 |  | 100 to 1000 nM | COc1c(OCCCN2CCOCC2)ccc2c1N=C(NC(=O)c1ccsc1)N1CCN=C21 [Example 97, N-[7-methoxy-8-(3-morpholin-4-ylpropoxy)-2,3-dihydroimidazo[1,2-c]quinazolin-5-yl]thiophene-3-carboxamide]
 |  | < 100 nM | COc1ccc(C(=O)NC2=Nc3c(ccc(OCCCN4CCOCC4)c3OC)C3=NCCN23)cn1 [Example 99, 6-methoxy-N-[7-methoxy-8-(3-morpholin-4-ylpropoxy)-2,3-dihydroimidazo[1,2-c]quinazolin-5-yl]nicotinamide]
 |  | 100 to 1000 nM | COc1cncc(C(=O)NC2=Nc3c(ccc(OCCCN4CCOCC4)c3OC)C3=NCCN23)c1 [Example 100, 5-methoxy-N-[7-methoxy-8-(3-morpholin-4-ylpropoxy)-2,3-dihydroimidazo[1,2-c]quinazolin-5-yl]nicotinamide]
 |  | < 100 nM | COc1c(OCCCN2CCOCC2)ccc2c1N=C(NC(=O)c1ccc(C)nc1)N1CCN=C21 [Example 101, N-[7-methoxy-8-(3-morpholin-4-ylpropoxy)-2,3-dihydroimidazo[1,2-c]quinazolin-5-yl]-6-methylnicotinamide]
 |  | < 100 nM | COc1c(OCCCN2CCOCC2)ccc2c1N=C(NC(=O)c1cccnc1)N1CCN=C21 [Example 103, N-[7-methoxy-8-(3-morpholin-4-ylpropoxy)-2,3-dihydroimidazo[1,2-c]quinazolin-5-yl]nicotinamide]
